Measurements as given in article PMC11882969 (Nature Communications, 2025).
“And” between values parts separate entries of the source, which are not always exact repeats. Identical values can stand only once. “Also recorded” adds a separate entry of the source. Like-named read-outs stand apart in the source and are kept apart here.

Legend:
CB1R = assay: Bimane fluorescence of labeled CB1R; type: biochemical, human; conditions: 10 μM ligand; apo 459 nm
Protocol: A minimal cysteine version of CB1R was generated[85] where all the cysteine residues (except C256 and C264) were mutated to alanine. […] Excess label was removed using size exclusion chromatography on a Superdex 200 10/300 Increase column in 20 mM HEPES pH 7.5, 100 mM NaCl and 0.01% MNG/0.001% CHS. Bimane-labeled CB1R at […] was incubated with ligands (10 μM) for one hour at room temperature. Fluorescence data was collected at room temperature in a 150 μL cuvette with a FluorEssence v3.8 software on a Fluorolog instrument (Horiba) in photon-counting mode. Bimane fluorescence was measured by excitation at 370 nm with excitation and emission bandwidth passes of 4 nm. The emission spectra were recorded from 410 to 510 nm with 1 nm increment and 0.1 s integration time.

mice [1] = assay: Tail flick, 50 °C water bath; type: in vivo, mouse; conditions: for analgesic response normalised to baseline, WT vs CB1R KO (Figure5d), individual animals / Response relative to Baseline, individual animals (FigS11c): 0.2 mg/kg; for Response relative to Baseline, individual animals (FigS11c): test not printed on the sheet
mice [2] = assay: Hot plate, 52 °C; type: in vivo, mouse; conditions: for Jump / Paw lick / Paw shake / Paw withdrawal: individual animals, FigS11b
mice [3] = assay: Hargreaves radiant heat test; type: in vivo, mouse; conditions: for Dose response, individual animals (FigS11a): test not printed on the sheet
mice [4] = assay: Open field test; type: in vivo, mouse
Protocol: Thirty min after i.p. injection, mice were placed in the center of a round open-field (2 feet diameter) and their exploratory behavior recorded over the next 15 min. Distance traveled was used to represent open field behavior.

mice [5] = assay: Catalepsy test, vertical wire mesh; type: in vivo, mouse; conditions: for Individual animal values (FigS11d): test not printed on the sheet
Protocol: Thirty min after an i.p. injection of the compounds, mice were placed on a vertical wire mesh and the latency to move all four paws was recorded.

mice [6] = system: mice
Protocol: For all behavioral tests, the experimenter was always blind to treatment. Animals were first habituated for 30-60 min in Plexiglas cylinders and then tested 30 min after i.p. or i.t. injection of the compounds. The thermal (Hargreaves, hotplate and tail flick) and ambulatory (rotarod) tests were conducted as described[96]. Briefly, hindpaw thermal sensitivity was measured with a radiant heat source (Hargreaves) or on a hotplate at 52 °C. For the tail flick assay, sensitivity was measured by immersing the tail into a 50 °C water bath. For the ambulatory (rotarod) test, before testing with any compound, mice underwent three trainings on three consecutive days until they reach 300 sec. Each training has three sessions of five min each. Therapeutic window was calculated as the ratio of the minimum dose of side effect phenotype to the minimum dose of analgesic phenotype.

in vitro [7] = conditions: mouse, plasma
Protocol: The reactions were stopped by adding 240 μL 90% acetonitrile containing internal standard with subsequent plasma proteins sedimentation by centrifuging at 5796 g for 5 min. Supernatants were analyzed by the HPLC system coupled with a tandem mass spectrometer. The percentage of the test compounds remaining after incubation in plasma and their half-lives (T1/2) were calculated.

in vitro [8] = conditions: mouse, microsomes, pH 7.4
Protocol: Microsomal incubations were carried out in 96-well plates in 5 aliquots of 30 μL each (one for each time point). […] In the control reactions, the NADPH-cofactor system was substituted with phosphate buffer. […] Five time points over 40 min were analyzed. The reactions were stopped by adding 5 volumes of acetonitrile with internal standard to incubation aliquots, followed by protein sedimentation by centrifuging at 4869 g for 5 min. Each reaction was performed in duplicates. Supernatants were analyzed using the HPLC system coupled with a tandem mass spectrometer. The elimination constant (kel), half-life (T1/2), and intrinsic clearance (Clint) were determined in a plot of ln(AUC) versus time, using linear regression analysis.

[9] = Pharmacokinetics: plasma, brain, CSF; conditions: for concentration at 1 min / concentration at 5 min / concentration at 15 min / concentration at 30 min / concentration at 60 min / concentration at 120 min / concentration at 240 min / concentration at 360 min / concentration at 480 min: intraperitoneal
[10] = male, CD-1, mouse, CSF, 0.2 mg/kg
[11] = male, CD-1, mouse, brain, 0.2 mg/kg
[12] = male, CD-1, mouse, plasma, 0.2 mg/kg
[13] = male, CD-1, mouse, plasma, ip, 0.2 mg/kg

COC(=O)[C@@](C)(NC(=O)c1cc(C)n(-c2cccc(C(F)(F)F)c2)n1)c1cccs1 [‘1350]
bimane spectrum λmax (CB1R): 463 nm
tail flick latency on cotreatment with morphine (mice [1]; 0.05 and 0.1 mg/kg plus morphine 3.0 mg/kg i.p.): significantly longer tail-flick latencies than did mice injected with morphine alone
effect of CB1R knockout on analgesia, tail flick (mice [1]; CB1R KO mice): completely blocked the analgesic effect
analgesic response normalised to baseline, WT vs CB1R KO (Figure5d), individual animals (mice [1]; CB1R KO mice): 106.345 and 98.767 and 101.721 and 166.196 and 107.501
Response relative to Baseline, individual animals (FigS11c) (mice [1]; CB2R KO mice): 164.985 and 191.573 and 174.006 and 295.549 and 230.504 and 308.843 and 149.555 and 202.493 and 243.323 and 186.825
tail flick response normalised to baseline (Figure4a), individual animals (mice [1]; Dose 0.05 mg/kg): 119.013 and 100.323 and 160.799 and 150.926 and 127.123
tail flick response normalised to baseline (Figure4a), individual animals (mice [1]; Dose 0.1 mg/kg): 155.51 and 183.368 and 185.307 and 158.155 and 125.713
tail flick response normalised to baseline (Figure4a), individual animals (mice [1]; Dose 0.2 mg/kg): 215.281 and 170.849 and 208.757 and 269.409 and 238.025
tail flick response normalised to baseline (Figure4a), individual animals (mice [1]; Dose 0.5 mg/kg): 229.386 and 270.644 and 271.701 and 225.86 and 268.175
analgesic response normalised to baseline, WT vs CB1R KO (Figure5d), individual animals (mice [1]; WT mice): 175.053 and 136.358 and 121.523 and 181.234 and 162.69 and 195.08 and 109.284 and 151.687 and 140.809 and 142.663
Response relative to Baseline, individual animals (FigS11c) (mice [1]; WT mice): 303.35 and 281.096 and 250.176 and 198.641 and 149.684 and 198.173 and 421.644 and 117.592 and 166.55 and 75.1933
lowest dose with significantly increased tail flick latency (mice [1]; i.p., 30 min after injection): 0.1 mg/kg
Jump (mice [2]; 0.05 mg/kg): 0 (4×) and 2
Paw lick (mice [2]; 0.05 mg/kg): 0 (3×) and 2 and 12
Paw shake (mice [2]; 0.05 mg/kg): 20 and 22 and 48 and 24 and 12
Paw withdrawal (mice [2]; 0.05 mg/kg): 28 and 42 and 47 and 50 and 14
Jump (mice [2]; 0.1 mg/kg): 0
Paw lick (mice [2]; 0.1 mg/kg): 2 and 0 (3×) and 8
Paw shake (mice [2]; 0.1 mg/kg): 16 and 18 and 6 and 22 and 4
Paw withdrawal (mice [2]; 0.1 mg/kg): 20 and 30 and 22 and 34 and 14
Jump (mice [2]; 0.2 mg/kg): 8 and 0 and 34 and 14 (2×)
Paw lick (mice [2]; 0.2 mg/kg): 0
Paw shake (mice [2]; 0.2 mg/kg): 2 (2×) and 4 and 0 (2×)
Paw withdrawal (mice [2]; 0.2 mg/kg): 16 and 22 and 18 (2×) and 12
effect of CB2R knockout on analgesia, hot plate (mice [2]; CB2R KO mice): did not decrease the analgesic effects
hot plate response normalised to baseline (Figure4b), individual animals (mice [2]; Dose 0.05 mg/kg): 62.7 and 108.4 and 141.6 and 81.1 and 84.7 and 79 and 84.5 and 85.4 and 86.2 and 81.8
hot plate response normalised to baseline (Figure4b), individual animals (mice [2]; Dose 0.1 mg/kg): 100.2 and 152.6 and 103.1 and 113.3 and 127.2 and 80.8 and 109.9 and 151.2 and 138.2 and 159.1
hot plate response normalised to baseline (Figure4b), individual animals (mice [2]; Dose 0.2 mg/kg): 191.789 and 117.988 and 110.937 and 200.407 and 123.942
hot plate response normalised to baseline (Figure4b), individual animals (mice [2]; Dose 0.5 mg/kg): 244.124 and 212.316 and 122.062 and 249.608 and 217.8
lowest dose with significantly increased hot plate latency (mice [2]; i.p., 30 min after injection): 0.1 mg/kg
Dose response, individual animals (FigS11a) (mice [3]; Dose 0.05 mg/kg): 70.2102 and 59.9464 and 116.769 and 106.654 and 53.8477
Dose response, individual animals (FigS11a) (mice [3]; Dose 0.1 mg/kg): 178.501 and 115.43 and 147.263 and 156.486
Dose response, individual animals (FigS11a) (mice [3]; Dose 0.2 mg/kg): 166.452 and 178.501
lowest dose with significantly increased latency, Hargreaves (mice [3]; i.p., 30 min after injection): 0.1 mg/kg
open field locomotion (Figure6a), individual animals (mice [4]; Dose 0.2 mg/kg): 12688.4 and 110206 and 39857.9 and 128163 and 83978.8
open field locomotion (Figure6a), individual animals (mice [4]; Dose 0.5 mg/kg): 61622.6 and 27571.5 and 19916.8 and 94738.4 and 50932.2
dose showing locomotor deficits, open field (mice [4]; i.p.): 0.2 mg/kg
catalepsy (Figure6c), individual animals (mice [5]; 0.2 mg/kg dose): 7 and 4 and 15 and 2 (2×)
catalepsy (Figure6c), individual animals (mice [5]; 0.5 mg/kg dose): 2 and 10 and 30 and 20 and 5 and 0.5 and 2.4 and 2.2 and 2.3 and 0.7 and 1 and 2.7 and 2.9 and 2.1 and 1.4
catalepsy (Figure6c), individual animals (mice [5]; 1 mg/kg dose): 16 and 5 and 4 and 30 and 6
catalepsy at a sedating dose (mice [5]; 1 mg/kg i.p.): non-significant, but nevertheless, increased latency to move the paws
catalepsy in CB1R knockout (mice [5]; 1 mg/kg, CB1R KO mice): eliminated this minimal cataleptic effect
catalepsy in CB2R knockout (mice [5]; 1 mg/kg, CB2R KO vs wildtype): statistically significant increase in catalepsy
Individual animal values (FigS11d) (mice [5]; CB1R KO mice, 1 mg/kg): 3.1 and 2.8 and 2.7 and 1.8
Individual animal values (FigS11d) (mice [5]; CB2R KO mice, 0.2 mg/kg): 2.2 and 2.7 and 4 and 4.2 and 2.8
Individual animal values (FigS11d) (mice [5]; CB2R KO mice, 0.5 mg/kg): 3.3 and 4.3 and 29.3 and 28 and 5.6
Individual animal values (FigS11d) (mice [5]; CB2R KO mice, 1 mg/kg): 40 and 2
Individual animal values (FigS11d) (mice [5]; WT mice, 0.2 mg/kg): 7 and 4 and 15 and 2
Individual animal values (FigS11d) (mice [5]; WT mice, 0.5 mg/kg): 2.4 and 2.2 and 2.3 and 0.7 and 1 and 2.7 and 2.1 and 1.4 and 2 and 10 and 30 and 20 and 5
Individual animal values (FigS11d) (mice [5]; WT mice, 1 mg/kg): 16 and 5 and 4 and 30 and 6
dose at which catalepsy starts (mice [5]; i.p.): 1 mg/kg
catalepsy, latency to move all four paws (mice [5]; i.p., ‘1350 at 0.2 or 0.5 mg/kg, haloperidol 1.0 mg/kg): did not induce cataleptic behavior
therapeutic window, Acetone (mice [6]; Figure 6e, vs rotarod): 10
therapeutic window, Hot Plate (mice [6]; Figure 6e, vs rotarod): 5
therapeutic window, Tail Flick (mice [6]; Figure 6e, vs rotarod): 5
therapeutic window, analgesia vs catalepsy (mice [6]; Figure 6f): at least a ten-fold window
therapeutic window, Acetone (mice [6]; Figure 6d, vs open field): 4
therapeutic window, Hot Plate (mice [6]; Figure 6d, vs open field): 2
therapeutic window, Tail Flick (mice [6]; Figure 6d, vs open field): 2
therapeutic window, analgesia vs hypolocomotion, sedation, catalepsy (mice [6]; mice): 2-10 fold and 2-20 fold
half-life at 1 µM (in vitro [7]): 41 min
remaining at 20 min, 1 µM (in vitro [7]): 84%
remaining at 40 min, 1 µM (in vitro [7]): 66%
remaining at 1 h, 1 µM (in vitro [7]): 48%
remaining at 2 h, 1 µM (in vitro [7]): 14%
remaining at 40 min, 2 µM (in vitro [8]): 100%
brain AUC0→inf ([9]; 0.2 mg/kg i.p., CD-1 mice): 8180 ng·min/mL
brain Cmax ([9]; 0.2 mg/kg i.p., CD-1 mice): 44.1 ng/g
level in CSF ([9]; 0.2 mg/kg i.p., CD-1 mice): but not CSF compartments; also recorded: below the quantification limit
concentration at 1 min [9, 10]: 0 ng/mL
concentration at 5 min [9, 10]: 1.2 ng/mL
concentration at 15 min [9, 10]: 0 ng/mL
concentration at 30 min [9, 10]: 0 ng/mL
concentration at 60 min [9, 10]: 0 ng/mL
concentration at 120 min [9, 10]: 0 ng/mL
concentration at 240 min [9, 10]: 0 ng/mL
concentration at 360 min [9, 10]: 0 ng/mL
concentration at 480 min [9, 10]: 0.14 ng/mL
concentration at 1 min [9, 11]: 0 ng/g
concentration at 5 min [9, 11]: 8.24 ng/g
concentration at 15 min [9, 11]: 41.8 ng/g
concentration at 30 min [9, 11]: 29.5 ng/g
concentration at 60 min [9, 11]: 44.1 ng/g
concentration at 120 min [9, 11]: 33.1 ng/g
concentration at 240 min [9, 11]: 4.35 ng/g
concentration at 360 min [9, 11]: 8.81 ng/g
concentration at 480 min [9, 11]: 2.87 ng/g
half-life ([9]; male, CD-1, mouse, brain, ip, 0.2 mg/kg): 112 min
concentration at 1 min [9, 12]: 0 ng/mL
concentration at 5 min [9, 12]: 6.41 ng/mL
concentration at 15 min [9, 12]: 10.8 ng/mL
concentration at 30 min [9, 12]: 5.48 ng/mL
concentration at 60 min [9, 12]: 7.25 ng/mL
concentration at 120 min [9, 12]: 6.15 ng/mL
concentration at 240 min [9, 12]: 0.376 ng/mL
concentration at 360 min [9, 12]: 1.1 ng/mL
concentration at 480 min [9, 12]: 0.486 ng/mL
AUC(0-inf) [9, 13]: 25.2 ng·h/mL
Cmax [9, 13]: 10.8 ng/mL and 25 nM
half-life [9, 13]: 111 min
